The source of these data is patent publication US8524740B2, “Synthesis and anticancer activity of aryl and heteroaryl-quinolin derivatives” (Tairx, Inc., priority 2010, dated 2013).

The IC50 is the concentration needed to halve the response being measured. Read a high IC50 as weaker potency. The term melting point denotes the temperature, or range, at which the solid turns liquid.

For data set [1], the system named is Hep3B. Put plainly: MTT assay, Hep 3B cells. The class given is cell-based. The following applies: Homo sapiens. As for the experimental part:
(§1) MTT (3-(4,5-Dimethylthiazol-2-yl)-2,5-diphenyltetrazolium bromide) assays.^21,22 HL-60, HCT-116, Hep 3B, H460, Detroit 551 and HT29/FuR cells were treated with tested compounds for the indicated periods. After treatment, cells were washed once with PBS and incubated with MTT (Sigma, St. Louis, Mo., USA) for 2 h. The formazan precipitate was dissolved in 150 μL of DMSO, and the absorbance was measured with an ELISA reader at 570 nm.
(§2) HL-60, Hep 3B, H460, MES-SA, MES-SAID x5 and Detroit 551 cells were treated with vehicle or test compounds for 48 h. The cell growth rate was determined by MTT (3-(4,5-dimethyl-thiazol-2-yl)-2,5-diphenyltetrazoliun bromide) reduction assay.
(§3) MTT (3-(4,5-Dimethylthiazol-2-yl)-2,5-diphenyltetrazolium bromide) assays. HL-60, HCT-116, A549, Hep 3B, KB, Kb-VIN and DU145 cells were treated with tested compounds for the indicated periods. After treatment, cells were washed once with PBS and incubated with MTT (Sigma, St. Louis, Mo., USA) for 2 h. The formazan precipitate was dissolved in 150 μL of DMSO, and the absorbance was measured with an ELISA reader at 570 nm.
(§4) MTT (3-(4,5-Dimethylthiazol-2-yl)-2,5-diphenyltetrazolium bromide) assays. HL-60, Hep 3B, H460, A498, Colo205 and Detroit 551 cells were treated with tested compounds for the indicated periods. After treatment, cells were washed once with PBS and incubated with MTT (Sigma, St. Louis, Mo., USA) for 2 h. The formazan precipitate was dissolved in 150 μL of DMSO, and the absorbance was measured with an ELISA reader at 570 nm.
On the technique in general: Formazan colour is commonly taken as a measure of viable cells.

The subject of data set [2] is HL-60. Put plainly: MTT assay, HL-60 cells. The class given is cell-based. As to conditions: Homo sapiens. As for the experimental part:
as §1, §2, §3, §4

For data set [3] the following is noted: oral and intravenous administration (CHM-2133-P); cited from earlier work.
Data set [4] deals with HCT116. Put plainly: MTT assay, HCT-116 cells. In kind it is cell-based. The following applies: Homo sapiens, Table 1, 48 h. As for the experimental part: as §1, §3
The subject of data set [5] is Detroit 551. Put plainly: MTT assay, Detroit 551 normal human cells. The class given is cell-based. The following applies: Detroit 551. As for the experimental part:
as §1, §2, §4

Data set [6] has as its system H460. Put plainly: MTT assay, H460 cells. In kind it is cell-based. The following applies: Homo sapiens, NCI-H460. The method, then: as §1, §2, §4
In data set [7] the test system is Hep-3B human hepatocellular carcinoma xenograft. Put plainly: In vivo antitumor activity assay, Hep3B xenograft nude mice. Set-up: species or system Balb/c Nude mice. As to conditions: for Hep3B tumor growth suppression compared with doxorubicin: 7.5 mg/kg/day p.o., doxorubicin 10 mg/kg p.o.; for antitumor activity by i.v. route compared with p.o. route: i.v., 7.5, 15, 30 mg/kg qd; for inhibition of Hep3B tumor growth (dose and time dependence): p.o., 7.5, 15, 30 mg/kg/day. The method, then:
The Hep-3B tumor cell line was purchased from American Type Culture Collection (ATCC™HB-8064, human hepatocellular carcinoma cells). The culture medium contained DMEM, 90%; Fetal Bovine Serum, 10% and 1% penicillin-streptomycin. The tumor cells were incubated in an atmosphere containing 5% CO2 at 37° C.
Balb/c Nude mice used in this study were male, 4-6 weeks age, weighing 18-20 g and provided by National Animal Center. All animals were housed in Individually Ventilated Cages Racks (IVC Racks, 36 Mini Isolator system) under Specific Pathogen-Free (SPF) condition throughout the experiment. Each cage (in cm, 26.7 length×20.7 width×14.0 height) was sterilized with autoclave and contained 8 mice, and then the animals were maintained in a hygienic environment under controlled temperature (20-24° C.) and humidity (40%-70%) with 12 hour light/dark cycle. The animals were given free access to sterilized lab chow and sterilized distilled water ad libilum. All aspects of this work, i.e., housing, experimentation and disposal of animals were performed in general accordance with the Guide for the Care and Use of Laboratory Animals (National Academy Press, Washington, D.C., 1996).
(§5) In the xenotraft tumor model of human hepatocellular carcinoma cell lines (Hep-3B, ATCC HB-8064) in male Balb/c Nude mice, the compounds 49 at doses at 7.5, 15 and 30 mg/kg (i.v. or p.o., bid) was administered five days per week for four consecutive weeks by p.o, or i.v. and ceased at Day 28. The compounds 52 at doses at 7.5, 15 and 30 mg/kg (i.v. or p.o., qd) was administered five days per week for four consecutive weeks and ceased at Day 28. The tumor size, body weight was monitored and recorded for 28 days. Human hepatocellular carcinoma cells (HEP-3B ATCC HB-8064) with 2×10^6 cells in 0.1 ml were injected subcutaneously into the right flank of the mice. When the tumor growth reached >100 mm^3 in volume (assumed as day 0), the tumor-bearing animals were assigned into several groups (8 animals in each group) for study.
(§6) The body weight and tumor size were measured and recorded every 7 days during the experimental periods of 28 days. Tumor volume (mm^3) was estimated according to the formula of length×[…]×0.5 in mm^3. Tumor growth inhibition was calculated as T/C (treatment/control) by the following formula: T/C=(Tn−T0)/(Cn−C0)×100% (T0: Tumor volume of treated group in Day 0; Tn: Tumor volume of treated group in Day n; C0: Tumor volume of control group in Day 0; Cn: Tumor volume of control group in Day n).
The Hep-3B tumor cell line was purchased from American Type Culture Collection (ATCC HB-8064, human hepatocellular carcinoma cells). A culture medium of 90% DMEM, 10% Fetal Bovine Serum, supplemented with 1% penicillin-streptomycin, was used. The tumor cells were incubated in an atmosphere containing 5% CO2 at 37° C.
Balb/c Nude mice used in this stud were male, 4-6 weeks age, weighing 18-20 g and provided by National Animal Center. All animals were housed in individually ventilated cages racks (IVC Racks, 36 Mini Isolator system) under specific pathogen-free (SPF) conditions throughout the experiment. Each cage (in cm, 26.7 length×20.7 width×14.0 height) was sterilized with autoclave and contained eight mice. The animals were maintained in a hygienic environment under controlled temperature (20-24° C.) and humidity (40% -70%) with a 12 hour light/dark cycle. The animals were given free access to sterilized lab chow and sterilized distilled water ad libitum. All aspects of this work, i.e., housing, experimentation and disposal of animals, were performed in general accordance with the Guide for the Care and Use of Laboratory Animals (National Academy Press, Washington, D.C., 1996). […]

The nature of data set [8]: Body weight monitoring in Hep3B xenograft nude mice. The class given is in vivo, Balb/c Nude mice. The following applies: during the course of antitumor evaluation (28 days). As for the experimental part: as §5, §6
In the xenograft tumor model of human hepatocellular carcinoma cell lines (Hep-3B, ATCC HB-8064) in male Balb/c Nude mice, compound 147 prepared in 9% (w/v) NaHCO3 solution at doses of 7.5, 15 and 30 mg/kg -i.v.or p.o., qd) was administered five days per week for four consecutive weeks and ceased at Day 28. The tumor size and body weight were monitored and recorded for 28 days. Human hepatocellular carcinoma cells (HEP-3,ATCC HB-8064) with 2 ×10^6 cells in 0.1 mL were injected subcutaneously into the right flank of the mice. […]
The body weight and tumor size were measured and recorded every seven days during the experiment periods of 28 days. […]

For data set [9], the system named is MES-SA/Dx5. Put plainly: MTT assay, MES-SA/Dx5 cells. In kind it is cell-based, human. As to conditions: for IC50: Homo sapiens, MES-SA/Dx5, 48 hrs; for Ratio Of SA/Dx5: IC50 MES-SA/Dx5 over IC50 MES-SA. As for the experimental part: as §2
In data set [10] the test system is MES-SA. Put plainly: MTT assay, MES-SA cells. The class given is cell-based. As to conditions: Homo sapiens, 48 hrs. As for the experimental part: as §2

Turning to `O=c1cc(-c2ccccc2F)[nH]c2cc3c(cc12)OCO3` [CHM-2133, 2-(2-fluorphenyl)-6,7-methylenedioxyquinolin-4-one, reference compound], the concentration for half-maximal inhibition (IC50) turned out to be 130 nM in [1] (Table 1, 48 h, MTT); 80 nM in [2] (Table 1, 48 h, MTT); 150 nM in [4]; 8200 nM in data set [5] (Table 1, 48 h, MTT, normal human cell); 140 nM in data set [6] (Table 1, 48 h, MTT). Further, the “antitumor activity in vivo (earlier work)” value in [3] is on record as “excellent antitumor activity”.
Take `COc1ccc2nc(-c3cccc(F)c3)cc(OP(=O)(O)O)c2c1OP(=O)(O)O` [Compound 49, 2-(3-Fluorophenyl)-6-methoxyquinoline-4,5-diyl bis(dihydrogen phosphate)]: the “antitumor activity compared with doxorubicin” value in data set [7] (7.5 mg/kg i.v. or p.o., bid, doxorubicin 5 mg/kg i.v. qd, 10 mg/kg p.o. qd) was “exceeded that of doxorubicin”. In addition, the “antitumor activity (dose and time dependence)” value in [7] (7.5, 15 and 30 mg/kg, i.v. or p.o., bid, five days per week for four weeks) is “dose- and time-dependent manner”. Besides, the body weight changes result in data set [8] is “no significant body weight changes”.
On to `COc1ccc2[nH]c(-c3cccc(F)c3)cc(=O)c2c1OP(=O)(O)O` [Compound 52, 2-(3-Fluorophenyl)-6-methoxy-4-oxo-1,4-dihydroquinolin-5-yl dihydrogen phosphate], for which, in [7], the “Hep3B tumor growth suppression compared with doxorubicin” value is on record as “Significant tumor growth suppression”; the “antitumor activity by i.v. route compared with p.o. route” value is “slight better antitumor activity”; the “inhibition of Hep3B tumor growth (dose and time dependence)” value is “dose- and time-dependent inhibition”. Besides, the tumor suppression entry in data set [7] (30 mg/kg/day oral dosing) was “Near complete tumor suppression”. In [8], the body weight changes result is recorded as “no significant body weight changes”.
In turn, `O=C1CC(c2cccc(O)c2)=Nc2ccc(N3CCOCC3)cc21` [Compound 137, 2-(3-Hydroxyphenyl)-6-morpholinoquinolin-4-one] yielded a melting point of 357 to 360 °C. Further, in data set [9] (Table 2, B-1 series), half-maximal inhibition (IC50) required 7300 nM and the “Ratio Of SA/Dx5” value was 2.02. Also, the IC50 in data set [1] (Table 2, B-1 series, 48 hrs) worked out at 11500 nM. Moreover, in data set [2] (Table 2, B-1 series, 48 hrs), the half-maximal inhibitory concentration (IC50) is 230 nM. For the same compound, the IC50 in [5] (Homo sapiens, Table 2, B-1 series, 48 hrs) stood at 10000 nM. The IC50 in data set [10] (Table 2, B-1 series) came out at 3610 nM. In [6] (Table 2, B-1 series, 48 hrs), this compound showed a half-maximal inhibitory concentration (IC50) of 24800 nM.
Regarding `O=C1CC(c2cccc(O)c2)=Nc2ccc(N3CCCC3)cc21` [Compound 138, 2-(3-Hydroxyphenyl)-6-pyrrolidinoquinolin-4-one], the melting point was 364 to 367 °C. Also, in [9] (Table 3, B-2 series), the IC50 amounted to 320 nM and the “Ratio Of SA/Dx5” value is 0.23. In [1] (Table 3, B-2 series, 48 hrs), this compound gave a half-inhibitory concentration (IC50) of 280 nM. For the same compound, half-maximal inhibition in data set [2] (Table 3, B-2 series, 48 hrs) (IC50) required 9 nM. The midpoint of inhibition in [5] (Homo sapiens, Table 3, B-2 series, 48 hrs), the IC50, lay at 1390 nM. This compound also registered an IC50 in data set [10] (Table 3, B-2 series) of 734 nM. For the same compound, in data set [6] (Table 3, B-2 series, 48 hrs), the half-inhibitory concentration (IC50) came to 400 nM.
In the case of `CN(C)c1ccc2c(c1)C(=O)CC(c1cccc(O)c1)=N2` [Compound 139, 2-(3-Hydroxyphenyl)-6-dimethylaminoquinolin-4-one], the melting point lay within 342 to 344 °C. In addition, in data set [9] (Table 4, B-3 series), the concentration for half-maximal inhibition (IC50) was determined as 852 nM and the “Ratio Of SA/Dx5” value is on record as 0.92. Also, half-maximal inhibition in [1] (Table 4, B-3 series, 48 hrs) (IC50) required 1000 nM. Also, the IC50 in data set [2] (Table 4, B-3 series, 48 hrs) amounted to 60 nM. In [5] (Homo sapiens, Table 4, B-3 series, 48 hrs), this compound showed a half-maximal inhibitory concentration (IC50) of 10000 nM. For the same compound, the midpoint of inhibition in [10] (Table 4, B-3 series), the IC50, lay at 931 nM. Also, it took 6200 nM to reach half-maximal inhibition in data set [6] (Table 4, B-3 series, 48 hrs) (IC50).
For `O=c1cc(-c2cccc(OP(=O)(O)O)c2)[nH]c2ccc(N3CCCC3)cc12` [Compound 147, 3-(4-Oxo-6-(pyrrolidin-1-yl)-1,4-dihydroquinolin-2-yl)phenyl dihydrogen phosphate], in data set [7], the “Hep3B tumor growth suppression compared with doxorubicin” value is reported as “exceed that of 10 mg/kg doxorubicin”; the “antitumor activity by i.v. route compared with p.o. route” value is “slightly greater activity”; the “inhibition of Hep3B tumor growth (dose and time dependence)” value was “dose- and time-dependent inhibition”. Also, in [7] (30 mg/kg p.o., % of that of the control), the “weight of Hep3B tumor relative to control” value was determined as 26.3%. In addition, the body weight changes entry in data set [8] is given as “no significant body weight changes”.
